According to publication PMC5325082 (Molecular Pharmacology, 2017):

Legend:
[1] = biological target: T1, α9χα10χ (α9 and α10 extracellular domains fused to 5-HT3A) (UniProt P23979+P43144+Q9JLB5, L231I/L232I); test: [3H]-α-BTX radioligand binding, membranes of transfected tsA201 cells; set-up: species or system rat
T1 construct: the extracellular N-terminal domain of the α9 or α10 subunit; expressed in transfected cells; host or cells: tsA201 cells (HEK293-derived), membrane preparation
Method: (§1) Chimeric subunit cDNAs containing the extracellular N-terminal domain of the α9 or α10 subunit fused to the transmembrane and intracellular domain of the mouse 5-HT3A subunit have been described previously ([Baker et al., 2004]). The mammalian cell line tsA201 (derived from the human embryonic kidney 293 cell line) was obtained from Dr. William Green (University of Chicago, Chicago). Cells were cultured in Dulbecco’s modified Eagle’s medium (Invitrogen, Paisley, United Kingdom) containing 2 mM L-GlutaMAX (Invitrogen) plus 10% heat-inactivated fetal calf serum (Sigma, Poole, United Kingdom) with penicillin (100 U/ml) and streptomycin (100 µg/ml) and were maintained in a humidified incubator containing 5% CO2 at 37°C. Cells were transiently transfected using Effectene transfection reagent (QIAGEN, Crawley, United Kingdom) according to the manufacturer’s instructions. In all cases, cells were transfected overnight and assayed for expression approximately 40–48 hours after transfection. To ensure that the levels of radioligand binding were not influenced by differences in the amount of subunit cDNA expressed, the amount of each subunit plasmid DNA and also the total amount of plasmid DNA were kept constant when subunits were expressed singly and in combination. This was achieved by the inclusion of empty plasmid expression vector when single subunits were transfected.
(§2) Binding studies with [^3H]-α-bungarotoxin (α-BTX) in cell membrane preparations were performed essentially as described previously ([Lansdell and Millar, 2000]; [Harkness and Millar, 2002]). Membranes (typically, 10–100 µg of protein) were incubated with radioligand (final concentration 20 nM) for 150 minutes at 4°C in a total volume of 300 µl in the presence of protease inhibitors leupeptin (2 µg/ml) and pepstatin (1 µg/ml). Our standard protocol for determining nonspecific binding was the addition of 1 mM carbachol, 1 mM nicotine, and 10 µM methyllycaconitine to triplicate samples. […] In all cases the levels of specific binding were determined by subtracting the level of nonspecific binding from the total binding (both of which were determined in triplicate). The data were determined as means of three independent experiments, each performed in triplicate. Radioligand binding was assayed by filtration onto 0.5% polyethylenimine-presoaked Whatman GF/B filters (Sigma-Aldrich, Dorset, England) followed by rapid washing (typically, five washes, each of 4 ml) with ice-cold 10 mM phosphate buffer using a Brandel cell harvester, and radioactivity was determined by scintillation counting. […] Protein concentrations were determined using bovine serum albumin standards (Bio-Rad, Hercules, CA).

α9χα10χW55T = biological target: T2, α9χα10χW55T (UniProt P23979+P43144+Q9JLB5, L231I/L232I/W81T); test: as above; set-up: species or system rat
T2 construct: containing the extracellular N-terminal domain of the α9 or α10 subunit fused to the transmembrane and intracellular domain of the mouse 5-HT3A subunit; mouse 5-HT3A subunit transmembrane and intracellular domain (fusion partner); expressed in transfected cells; host or cells: tsA201 (derived from human embryonic kidney 293), transient transfection; membrane preparations
Method: as §1, §2

α9χY190T (homomeric) = format: binding, rat
α10χY190T (homomeric) = format: binding, rat
[2] = system: α9χY190Tα10χY190T (heteromeric double mutant); format: binding, rat
α9χY190Tα10χ = format: binding, rat
α9χα10χY190T = format: binding, rat
[3] = system: homomeric α9χW55T receptors; format: binding, rat
[4] = system: homomeric α10χW55T receptors; format: binding, rat
homomeric α10χ = homomeric α10χ (UniProt P23979+Q9JLB5, L231I/L232I); format: binding, rat
α9χW55Tα10χ = α9χW55Tα10χ (UniProt P23979+P43144+Q9JLB5, L231I/L232I/W82T); format: binding, rat
α9χW55Tα10χW55T = format: binding, rat

Substance: α-bungarotoxin [[^3H]-α-BTX]
- Specific binding of [3H]-α-BTX, fold higher than α9χ expressed alone [1]: 6 fold
- Specific binding of [3H]-α-BTX (α9χα10χW55T): specific binding levels similar to those observed with wild-type heteromeric α9χα10χ receptors
- Specific binding of [3H]-α-BTX (α9χY190T (homomeric)): complete loss of specific binding
- Specific binding of [3H]-α-BTX (α10χY190T (homomeric)): complete loss of specific binding
- Specific binding of [3H]-α-BTX [2]: complete loss of specific binding
- Specific binding of [3H]-α-BTX, fold higher than homomeric α10χ (α9χY190Tα10χ): 4 fold
- Specific binding of [3H]-α-BTX, fold lower than wild-type α9χα10χ (α9χY190Tα10χ): 6 fold
- Specific binding of [3H]-α-BTX, fold lower than wild-type α9χα10χ (α9χα10χY190T): 4 fold
- Specific binding of [3H]-α-BTX [3]: no detectable specific binding
- Specific binding of [3H]-α-BTX [4]: 2.5 ± 0.6 fmol/mg
- Specific binding of [3H]-α-BTX (homomeric α10χ): 1.4 ± 0.5 fmol/mg
- Specific binding of [3H]-α-BTX (α9χW55Tα10χ): binding levels similar to those observed with either α10χ or α10χW55T when expressed alone
- Specific binding of [3H]-α-BTX (α9χW55Tα10χW55T): binding levels similar to those observed with either α10χ or α10χW55T when expressed alone
